These results are taken from patent US20210015749A1, “NANOCOCHLEATE FORMULATION AND METHOD OF PREPARING THE NANOCOCHLEATE FORMULATION” (priority 2019, published 2021).

The subject of this test is glucocorticoid-treated rats. The test is described as follows: Biochemical tests of serum bone parameters in treatment groups of osteoporotic (prednisolone) rats. The format is in vivo, rat.
The mark [1] stands for this setting: serum, * = significant difference with prednisolone group.

As to Vitamin D, the Ph (serum phosphorus) is recorded as 7.525 ± 0.4272. Under setting [1], the Bone-ALP was 312 ± 24.42, the Ca was found to be 9.367 ± 0.3786, the OPG is given as 3.325 ± .9012 and the Osteocalcin is 16.5 ± 2.121.
